How the values were obtained:
BT-549 = test: Growth inhibition of human BT549 cells assessed as cell growth at 10 uM after 48 hrs by sulforhodamine B assay; type: functional; conditions: BT-549, 48 h, read-out: Activity
[1] = Growth inhibition of human Hs 578T cells assessed as cell growth at 10 uM after 48 hrs by sulforhodamine B assay; type: functional; conditions: read-out: Activity
UO-31 = test: Growth inhibition of human UO31 cells assessed as cell growth at 10 uM after 48 hrs by sulforhodamine B assay; type: functional; conditions: UO-31, 48 h, read-out: Activity
PC-3 = test: Growth inhibition of human PC3 cells assessed as cell growth at 10 uM after 48 hrs by sulforhodamine B assay; type: functional; conditions: PC-3, 48 h, read-out: Activity
SN12C = test: Growth inhibition of human SN12C cells assessed as cell growth at 10 uM after 48 hrs by sulforhodamine B assay; type: functional; conditions: read-out: Activity
HT-29 = test: Growth inhibition of human HT-29 cells after 48 hrs by sulforhodamine B assay; type: functional; conditions: HT-29, 48 h
[2] = Growth inhibition of human HCC2998 cells after 48 hrs by sulforhodamine B assay; type: functional; conditions: HCC 2998, 48 h
NCI-H23 = test: Growth inhibition of human NCI-H23 cells after 48 hrs by sulforhodamine B assay; type: functional; conditions: NCI-H23, 48 h
A549 = test: Growth inhibition of human A549/ATCC cells after 48 hrs by sulforhodamine B assay; type: functional; conditions: A549, 48 h
RPMI-8226 = test: Growth inhibition of human RPMI8226 cells after 48 hrs by sulforhodamine B assay; type: functional, cell-based; conditions: RPMI-8226, 48 h
K562 = test: Growth inhibition of human K562 cells after 48 hrs by sulforhodamine B assay; type: functional; conditions: K562, 48 h
RXF 393 = test: Growth inhibition of human RXF393 cells assessed as cell growth at 10 uM after 48 hrs by sulforhodamine B assay; type: functional; conditions: RXF 393, 48 h, read-out: Activity
ACHN = test: Growth inhibition of human ACHN cells assessed as cell growth at 10 uM after 48 hrs by sulforhodamine B assay; type: functional; conditions: read-out: Activity
786-0 = test: Growth inhibition of human 786-0 cells assessed as cell growth at 10 uM after 48 hrs by sulforhodamine B assay; type: functional; conditions: 786-0, 48 h, read-out: Activity
A498 = test: Growth inhibition of human A498 cells assessed as cell growth at 10 uM after 48 hrs by sulforhodamine B assay; type: functional; conditions: A498, 48 h, read-out: Activity
SK-OV-3 [3] = test: Growth inhibition of human SKOV3 cells assessed as cell growth at 10 uM after 48 hrs by sulforhodamine B assay; type: functional; conditions: SK-OV-3, 48 h, read-out: Activity
OVCAR-3 = test: Growth inhibition of human OVCAR3 cells assessed as cell growth at 10 uM after 48 hrs by sulforhodamine B assay; type: functional; conditions: OVCAR-3, 48 h, read-out: Activity
UACC-62 = test: Growth inhibition of human UACC62 cells assessed as cell growth at 10 uM after 48 hrs by sulforhodamine B assay; type: functional; conditions: UACC-62, 48 h, read-out: Activity
UACC-257 = test: Growth inhibition of human UACC257 cells assessed as cell growth at 10 uM after 48 hrs by sulforhodamine B assay; type: functional; conditions: UACC-257, 48 h, read-out: Activity
SK-MEL-5 [4] = test: Growth inhibition of human SK-MEL-5 cells assessed as cell growth at 10 uM after 48 hrs by sulforhodamine B assay; type: functional; conditions: SK-MEL-5, 48 h, read-out: Activity
SK-MEL-2 = test: Growth inhibition of human SK-MEL-2 cells assessed as cell growth at 10 uM after 48 hrs by sulforhodamine B assay; type: functional; conditions: SK-MEL-2, 48 h, read-out: Activity
SNB-19 = test: Growth inhibition of human SNB19 cells assessed as cell growth at 10 uM after 48 hrs by sulforhodamine B assay; type: functional; conditions: SNB-19, 48 h, read-out: Activity
HCT-116 = test: Growth inhibition of human HCT116 cells assessed as cell growth at 10 uM after 48 hrs by sulforhodamine B assay; type: functional; conditions: HCT-116, 48 h, read-out: Activity
MDA-MB-468 = test: Growth inhibition of human MDA-MB-468 cells after 48 hrs by sulforhodamine B assay; type: functional, cell-based; conditions: MDA-MB-468, 48 h
T47D = test: Growth inhibition of human T47D cells after 48 hrs by sulforhodamine B assay; type: functional
DU-145 = test: Growth inhibition of human DU145 cells after 48 hrs by sulforhodamine B assay; type: functional; conditions: DU-145, 48 h
TK-10 = test: Growth inhibition of human TK10 cells after 48 hrs by sulforhodamine B assay; type: functional; conditions: TK-10, 48 h
SK-OV-3 [5] = test: Growth inhibition of human SKOV3 cells after 48 hrs by sulforhodamine B assay; type: functional; conditions: SK-OV-3, 48 h
SK-MEL-5 [6] = test: Growth inhibition of human SK-MEL-5 cells after 48 hrs by sulforhodamine B assay; type: functional; conditions: SK-MEL-5, 48 h
SK-MEL-28 = test: Growth inhibition of human SK-MEL-28 cells after 48 hrs by sulforhodamine B assay; type: functional; conditions: SK-MEL-28, 48 h
SNB-75 = test: Growth inhibition of human SNB75 cells after 48 hrs by sulforhodamine B assay; type: functional; conditions: SNB-75, 48 h
U-251 = test: Growth inhibition of human U251 cells after 48 hrs by sulforhodamine B assay; type: functional; conditions: U-251, 48 h
SF-539 = test: Growth inhibition of human SF539 cells after 48 hrs by sulforhodamine B assay; type: functional; conditions: SF-539, 48 h
HL-60(TB) = test: Growth inhibition of human HL-60(TB) cells assessed as cell growth at 10 uM after 48 hrs by sulforhodamine B assay; type: functional; conditions: HL-60, 48 h, read-out: Activity
[7] = read-out: LC50 (the source's name)

O=C(Nc1cccc(-n2cc(-c3ccncc3)c(-c3ccc(Cl)c(O)c3)n2)c1)Nc1ccc(Cl)c(C(F)(F)F)c1
growth at 10 µM (BT-549): 1.33%
growth at 10 µM [1]: -7.39%
growth at 10 µM (UO-31): -6.09%
growth at 10 µM (PC-3): -10.4%
growth at 10 µM (SN12C): 7.46%
GI50 (HT-29): 1280 nM
TGI (HT-29): 5730 nM
CC50 (HT-29; [7]): 22600 nM
GI50 [2]: 1060 nM
TGI [2]: 4120 nM
CC50 [2, 7]: 20700 nM
GI50 (NCI-H23): 951 nM
LC50 (NCI-H23): 26100 nM
TGI (NCI-H23): 3330 nM
GI50 (A549): 927 nM
LC50 (concentration killing 50% of starting cells) (A549): > 32500 nM
TGI (A549): 5090 nM
GI50 (RPMI-8226): 580 nM
IC50 (RPMI-8226): 580 nM
TGI (RPMI-8226): 2000 nM
CC50 (RPMI-8226; [7]): > 32500 nM
GI50 (K562): 921 nM
TGI (K562): > 32500 nM
CC50 (K562; [7]): > 32500 nM
growth at 10 µM (RXF 393): -76%
growth at 10 µM (ACHN): 6.62%
growth at 10 µM (786-0): 4.7%
growth at 10 µM (A498): 11.2%
growth at 10 µM (SK-OV-3 [3]): 7.47%
growth at 10 µM (OVCAR-3): -43%
growth at 10 µM (UACC-62): -55.1%
growth at 10 µM (UACC-257): -54%
growth at 10 µM (SK-MEL-5 [4]): -100%
growth at 10 µM (SK-MEL-2): -60.4%
growth at 10 µM (SNB-19): -28.8%
growth at 10 µM (HCT-116): -51%
GI50 (MDA-MB-468): 541 nM
IC50 (MDA-MB-468): 540 nM
TGI (MDA-MB-468): 1750 nM
CC50 (MDA-MB-468; [7]): > 32500 nM
GI50 (T47D): 1120 nM
TGI (T47D): > 32500 nM
CC50 (T47D; [7]): > 32500 nM
GI50 (DU-145): 1130 nM
LC50 (DU-145): 25100 nM
TGI (DU-145): 4630 nM
GI50 (TK-10): 1500 nM
TGI (TK-10): 11900 nM
CC50 (TK-10; [7]): > 32500 nM
GI50 (SK-OV-3 [5]): 1340 nM
TGI (SK-OV-3 [5]): 14900 nM
CC50 (SK-OV-3 [5]; [7]): > 32500 nM
GI50 (SK-MEL-5 [6]): 550 nM
LC50 (concentration killing 50% of cells) (SK-MEL-5 [6]): 2130 nM
TGI (SK-MEL-5 [6]): 1080 nM
GI50 (SK-MEL-28): 978 nM
LC50 (SK-MEL-28): 12400 nM
TGI (SK-MEL-28): 3330 nM
GI50 (SNB-75): 678 nM
LC50 (lethal concentration, 50% net cell kill) (SNB-75): > 32500 nM
TGI (SNB-75): 3200 nM
GI50 (U-251): 548 nM
LC50 (concentration killing 50% of cells) (U-251): 2740 nM
TGI (U-251): 1230 nM
GI50 (SF-539): 782 nM
LC50 (concentration killing 50% of cells) (SF-539): > 32500 nM
TGI (SF-539): 2390 nM
growth at 10 µM (HL-60(TB)): -11.2%

Reference: ChEMBL document CHEMBL2440076, “New triarylpyrazoles as broad-spectrum anticancer agents: design, synthesis, and biological evaluation” (Eur J Med Chem, 2013)
